Experimental data published in US10004727B2, “Composition for preventing, alleviating or treating metabolic diseases, containing amodiaquine as active ingredient” (POSTECH ACADEMY—INDUSTRY FOUNDATION, priority 2015, dated 2018).

How the values were obtained:
[1] = tested on: high fat-induced obesity mice; experiment: Intraperitoneal insulin tolerance test (IPITT) in high fat-induced obesity mice; type: in vivo, mouse; conditions: 0.5 U/kg insulin i.p.; for blood glucose concentration after 2 hours (IPITT): HFD with simultaneous substance, FIG. 7B; for time of lowest blood glucose level (IPITT): substance given after long-term HFD induction, FIG. 7C
Protocol: After 16-hour fasting, 0.5 U/kg of insulin was intraperitoneally administered to each animal in the controls and the experimental group, and a blood glucose concentration was measured every 30 minutes for 2 hours. For measurement of the blood glucose concentration, an IPITT was used.

[2] = target: T1, human PPAR-γ-ligand binding domain (LBD) (Homo sapiens, UniProt P37231); experiment: GAL4-PPAR-γ-LBD luciferase reporter assay in BE(2)C cells; type: cell-based; conditions: various concentrations up to 50 μM, 20 hours, FIGS. 1A and 1B
T1 construct: expressed in transfected cells; host or cells: BE(2)C cells
T1 sequence (P37231 238-503 limits assumed): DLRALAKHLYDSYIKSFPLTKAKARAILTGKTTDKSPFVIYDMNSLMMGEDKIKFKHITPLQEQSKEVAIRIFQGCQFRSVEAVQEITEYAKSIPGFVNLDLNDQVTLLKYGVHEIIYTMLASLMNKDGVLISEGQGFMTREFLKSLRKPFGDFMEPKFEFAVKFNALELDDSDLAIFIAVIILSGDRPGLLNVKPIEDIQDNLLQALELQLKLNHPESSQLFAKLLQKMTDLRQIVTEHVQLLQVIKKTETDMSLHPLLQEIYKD
Protocol: (§1) To examine whether amodiaquine serves as a ligand of PPAR-γ or PPAR-α, three types of vectors were used.
(§2) The activation of luciferase expression was detected 6 hours after BE(2)C cells were transformed with a GAL4-PPAR-γ-LBD plasmid or GAL4-PPAR-α-LBD plasmid, the GAL4-luciferase vector and the β-galactosidase vector, and growing amodiaquine-treated cells for 20 hours in a 5% CO2 incubator.

KKAy mice [3] = experiment: Fasting blood glucose in KKAy mice; type: in vivo, mouse; conditions: 18 mg/kg daily oral for 6 weeks, control 132.4 mg/dl
Protocol: (§3) Following one-week acclimation, 5-week-old KKAy mice purchased from Saeronbio Inc. were divided into two groups of 5.
(§4) The first group was set as a negative control by administering PBS, and the second group was treated by daily oral administration of amodiaquine at 18 mg/kg for 6 weeks.
(§5) Fasting blood glucose was measured for 6 weeks from whole blood taken from the caudal vein of each mouse 1, 2, 5 and 6 weeks after 12-hour fasting. For blood glucose measurement, a blood glucose strip (Green Cross, Gyeonggi-do, Korea) was used. […] In addition, to identify the blood glucose regulation effect, 2 g/kg of glucose was intraperitoneally injected into the mice of the control and experimental group after 16-hour fasting, and the level of blood glucose was measured every 30 minutes for 2 hours. For measurement of the blood glucose concentration, an intraperitoneal glucose tolerance test (IPGTT) was used.

[4] = tested on: high fat-induced obesity mouse; experiment: 4° C. cold test (thermal production) in high fat-induced obesity mice; type: in vivo; conditions: HFD mice, 14 weeks, amodiaquine 20 mg/kg; 4° C. for up to 6 hours; versus high fat obesity-induced mouse; FIG. 6
Protocol: To measure a thermal production capability with respect to mice fed a high fat diet for 14 weeks among the experimental animals designed in Example 5, a 4° C. cold test was performed (Spiegelman B. M. et al., Cell 92: 829-839, 1998). Hereinafter, the measurement method will be described in detail. A body temperature of mice in the high fat-induced obesity mouse groups was measured before being exposed to 4° C. and recorded as a test start temperature, and then the mice were exposed to 4° C. for up to 6 hours, followed by measuring a body temperature. The body temperature was measured using a rectal thermometer for a mouse (testo 925, Germany) A thermal production value indicated a temperature measured every hour.

PPAR-α-LBD = target: T2, PPAR-α-LBD (Homo sapiens, UniProt Q07869); experiment: GAL4-PPAR-α-LBD luciferase reporter assay in BE(2)C cells; type: cell-based; conditions: various concentrations up to 50 μM, 20 hours, FIGS. 1C and 1D
T2 construct: expressed in transfected cells; host or cells: BE(2)C cells
T2 sequence (Q07869 239-466 limits assumed): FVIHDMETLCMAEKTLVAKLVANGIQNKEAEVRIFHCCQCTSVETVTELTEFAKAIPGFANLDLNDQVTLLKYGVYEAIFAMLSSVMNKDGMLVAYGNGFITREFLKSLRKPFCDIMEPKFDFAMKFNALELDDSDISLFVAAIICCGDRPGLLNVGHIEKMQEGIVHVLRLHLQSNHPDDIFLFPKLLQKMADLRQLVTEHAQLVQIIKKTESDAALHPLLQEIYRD
Protocol: as §1, §2

KKAy mice [5] = experiment: Intraperitoneal glucose tolerance test (IPGTT) in KKAy mice; type: in vivo, mouse; conditions: 18 mg/kg daily oral for 6 weeks, 2 g/kg glucose i.p. after 16-hour fasting, control 293.2 mg/dl
Protocol: as §3, §4, §5

[6] = tested on: high fat-induced obesity mice; experiment: Oral glucose tolerance test (OGTT) in high fat-induced obesity mice; type: in vivo, mouse; conditions: HFD mice with amodiaquine; 2 g/kg glucose oral after 16-hour fasting; HFD control 180.5 mg/dl; FIG. 7A
Protocol: After 16-hour fasting, 2 g/kg of glucose was orally administered to each animal in the controls and experimental group, and a blood glucose concentration was measured every 30 minutes for 2 hours. For measurement of the blood glucose concentration, an OGTT was used.

C2C12 myotube cells = experiment: Glucose uptake ([3H]2-DOG) evaluation test in C2C12 myotube cells; type: cell-based, mouse; conditions: C2C12 myotubes, 10 and 30 μM amodiaquine for 24 hours, compared with 50 μM rosiglitazone; FIG. 2
Protocol: Phosphorylation of insulin receptors occurs due to signal transduction by insulin in muscle, adipose or liver cells, and therefore when various proteins located downstream are phosphorylated, glucose uptake increases resulting in reduced blood glucose. A glucose uptake evaluation test was performed to identify whether amodiaquine is effective in diabetes. C2C12 myoblasts, which are muscle cells, were cultured in 10% […]-containing DMEM. When the cell density reached approximately 80 to 90%, the medium was replaced with fresh 2% horse serum-containing DMEM, and cell differentiation of the C2C12 myoblasts to myotubes was induced to make them completely differentiated, followed by carrying out an experiment. […] Washing was repeated three times every twenty minutes. Subsequently, 1 ml of KRP buffer was injected, a solution (0.2 mM, 0.2 μCi) prepared by dissolving unlabeled 2-DOG and [^3H]2-DOG (Amersham Pharmacia) in KRP buffer was added at 37° C. to allow treatment for exactly 10 minutes. The resulting cells were washed with 3 ml of cold phosphate buffered saline (PBS) to stop a glucose uptake reaction, further washed twice with PBS, air-dried for approximately 1 hour, and lyzed with 1 ml of 0.1% SDS by pipetting, and then 300 μl of the lysate was obtained to detect radioactivity using a liquid scintillation counter (Perkin Elmer, USA).

[7] = tested on: liver of the high fat-induced obesity mouse; experiment: Fatty liver histology (hematoxylin-eosin) in high fat-induced obesity mice; type: in vivo; conditions: HFD with amodiaquine for 14 weeks; FIG. 8
Protocol: Among the experimental animals designed in Example 5, mice in the high fat-induced obesity mouse group fed a high fat diet for 14 weeks were sacrificed by cervical spine dislocation, fixed on a dissection stand, and subjected to abdominal dissection with a scalpel to extract the liver. The extracted liver tissue was fixed in a 10% formalin solution to prevent contracted deformation. After the fixed tissue was washed with running water after 24 hours, general tissue dehydration, clearing and impregnation were performed using an automatic tissue processor (6460B, Sakura, Japan) for 14 hours, and manufacture of paraffin blocks and cooling were performed using an automated embedding device (Tissue-Tex, Japan). The manufactured paraffin blocks were continuously sliced to a thickness of 4 to 5 μm in a vertical direction of the tissue using a rotary microtome 2040 (Japan), and attached to slides after processing using a water bath and a slide warming table. The thin tissue section was stained with hematoxylin, an excessively-stained part was washed with running tap water, and then the resulting section was dipped in 1% HCl and a 70% A/C solution 3 to 5 times to stain the nuclei blue. […]

[8] = Body weight of high fat-induced obesity mice; type: in vivo, mouse; conditions: C57BL/6 mice, amodiaquine 20 mg/kg
Protocol: The mice were divided into groups of 7, freely fed water and diets in a cage, and then acclimated for 1 week before an experiment. […] [table] […] An average body weight was calculated by dividing the sum of weights of 7 mice per group by the number of mice.

KKAy mice [9] = experiment: Glycated hemoglobin (HbA1C) content in KKAy mice; type: in vivo, mouse; conditions: 18 mg/kg daily oral for 6 weeks, FIG. 4
Protocol: To detect a change in glycated hemoglobin content in mice by amodiaquine, after 1-week acclimation, 5-week-old KKAy mice were purchased from Saeronbio Inc. were divided into two groups of 5. Like in Example 3, the first group of mice were set as a control by administering PBS, and the second group was treated by daily oral administration of amodiaquine at 18 mg/kg for 6 weeks using a 1 ml syringe. To detect an effect of amodiaquine on reducing glycated hemoglobin content, whole blood was taken from the caudal vein of each mouse in the control and experimental group, injected into an easy A1c cartridge, and then assessed using an easy A1c analyzer (Asan Pharmaceutical Co., Ltd., Seoul, Korea). An independent group t-test was performed on the experimental group and the control to identify significance in the test results, and a statistically significant difference was shown (**p<0.005).

SMILES | blood glucose concentration after 2 hours (IPITT) [1] | PPAR-γ activity (luciferase expression) [2] | PPAR-α activity (luciferase expression) (PPAR-α-LBD) | time of lowest blood glucose level (IPITT) [1] | also measured
Cc1cccc(Nc2cc(Cl)nc(SCC(=O)O)n2)c1C [WY-14,643] | maintained lower than the fasting blood glucose concentration | PPAR-γ activity was not shown |  |  | 
CCN(CC)Cc1cc(Nc2ccnc3cc(Cl)ccc23)ccc1O [amodiaquine, 4-[(7-chloroquinolin-4-yl)amino]-2-[(diethylamino)methyl]phenol] | maintained lower than the fasting blood glucose concentration | higher concentration-dependent PPAR-γ activity | high concentration-dependent PPAR-α activity | 30 min | fasting blood glucose concentration (KKAy mice [3]): 100.2 mg/dL; body temperature on exposure to 4° C. (thermal production) [4]: less decreased in body temperature; blood glucose concentration 2 hours after glucose loading (IPGTT) (KKAy mice [5]): 207 mg/dL; blood glucose concentration 2 hours after glucose loading (OGTT) [6]: 139.1 mg/dL; glucose uptake (C2C12 myotube cells): further increased than that in the rosiglitazone-treated group; liver appearance (fat accumulation, hematoxylin-eosin) [7]: almost the same appearance as that of a normal mouse; body weight versus high fat-induced obesity mouse (prevention) ([8]; HFD with substance for 14 weeks, FIG. 5A): significantly lower than that of the high fat-induced obesity mouse; body weight versus high fat-induced obesity mouse (treatment) ([8]; substance for 7 weeks after 15-week HFD induction, rosiglitazone 50 mg/kg, FIG. 5C): significantly lower than that of the high fat-induced obesity mouse; production of glycated hemoglobin relative to the control mice (KKAy mice [9]): ~69%
CCN(CC)CCCC(C)Nc1ccnc2cc(Cl)ccc12 (stereo not drawn) [chloroquine, 7-chloro-4-(4-diethylamino-1-methylbutylamino)quinoline] |  | PPAR-γ activity was not shown | did not show the PPAR-α activity |  | 
CN(CCOc1ccc(CC2SC(=O)NC2=O)cc1)c1ccccn1 (stereo not drawn) [rosiglitazone] |  |  |  | 60 min | 
